Source: patent US20180360953A1 (priority 2015, published 2018)
“Also recorded” adds a separate entry of the source. Like-named read-outs stand apart in the source and are kept apart here.

Legend:
[1] = test system: neutrophils and mast cells; conditions: cited from earlier work
[2] = test system: Spleen cells of naïve C57BL/6 mice; format: cell-based
[3] = test system: spleen cells; format: cell-based, mice; conditions: spleen cells 24 hrs; Roflumilast 6.5 μM, Sivelestat 46 μM, Sulfasalazine 100 uM, Aspirin 100 μM
Procedure: In this example, the signaling induced by neutrophil inhibitors were examined to provide insight into mechanisms used to promote immunoglobulin class switching and production of IgG and/or IgA antibodies. In these experiments, the spleen cells of nice mice were cultured 24 hrs without or with neutrophil inhibitor (roflumilast (Phosphodiesterase-4 inhibitor), sivelestat (Neutrophil elastase inhibitor), sulfasalazine (Neutrophil NET inhibitor), or aspirin (COX inhibitor)). Gene expression was analyzed by qRT-PCR for BAFF, AID, TGFb, and IL-10. Mice were divided into 5 groups: (1) Control (Media) (2) Roflumilast (6.5 μM) (3) Sivelestat (46 μM) (4) Sulfasalazine (100 uM) and (5) Aspirin (100 μM).

[4] = test system: spleen cells; format: cell-based, mice; conditions: 24 hrs, 48 μM
[5] = test system: spleen cells; format: cell-based, mice
[6] = test system: mucosal homing receptors CCR9 and a4b7; format: cell-based; conditions: spleen and mesenteric lymph node cells of naïve mice, 48 hours, Alvelestat 50 or 200 mM
Procedure: Spleen (A) and mesenteric lymph node (B) cells of naïve mice were cultures for 48 hours in the absence or in the presence of the NEI Alvelestat ([…]). The expression of mucosal homing receptors CCR9 and a4b7 by B lymphocytes, and T lymphocytes was analyzed by flow cytometry.

[7] = test system: PA-specific Ab responses; design: species or system mice; conditions: mouse, in vivo
[8] = test system: Bacillus anthracis lethal toxin (LeTx); format: in vivo, mice; conditions: Day 21
[9] = test system: mucosal homing receptors CCR9 and a4b7; design: species or system mice; conditions: mouse, ip
[10] = test system: OVA-specific Ab responses; design: species or system mice; conditions: mouse, in vivo
[11] = test system: OVA-specific Ab responses; design: species or system mice; conditions: mouse, in vivo, ip
[12] = test system: CD4+ T helper cells; design: species or system mice; conditions: mouse, in vivo
[13] = test system: mesenteric lymph node cells; format: cell-based, mice; conditions: 5-days culture
Procedure: (§1) Single cell suspensions of spleen cells, mesenteric lymph nodes were resuspended (2×10^6 cells/ml) in RPMI 1640 supplemented with L-glutamine, HEPES, penicillin, streptomycin and 10% heat-inactivated fetal calf serum. Cells were cultured for 1, 5, or 6 days at 37° C. and 5% CO2 in the presence of various doses of the neutrophil elastase inhibitor Sivelestat (ONO-5046, C20H22N2O7S) or Alvelestat (AZD9668, C25H22F3N5O4S) (Selleckchem, Houston, Tex.). In selected experiments, neutrophil elastase inhibitors were added to cells cultured in the presence of Salmonella typhimurium LPS (0.05 μg/ml, Sigma, Saint Louis, Mo.).
(§2) […] described by ELISA, using goat anti-murine IgM, IgG, and IgA antibodies (Southern Biotech, Birmingham, Ala.) and extrapolation against standards.

[14] = test system: spleen cells; format: cell-based, mice; conditions: 5 days; for IgG and IgA secreted in culture supernatants of spleen cells / IgM secreted in culture supernatants of spleen cells: increasing doses
Procedure: as §1, §2

[15] = test system: spleen cells; format: cell-based, mice; remark: listed apart in the source
[16] = test system: spleen cells; format: cell-based, mice; conditions: 100 μM
[17] = test system: PA-specific Ab responses; design: species or system mice; conditions: mouse, in vivo; remark: listed apart in the source
[18] = test system: F1-V-specific Ab responses; design: species or system mice; conditions: mouse, in vivo

For O=C1CCC(N2C(=O)c3ccccc3C2=O)C(=O)N1 (stereo not drawn) [thalidomide], the “ET formation in neutrophils and mast cells” value [1] is listed as “significantly inhibit”.
For O=C(Nc1c(Cl)cncc1Cl)c1ccc(OC(F)F)c(OCC2CC2)c1 [Roflumilast], the “Relative stimulation of IgA secretion” value [2] was “+”, the “Dose effect (Relative stimulation of IgA)” value ([2]; 0.062 uM) was “uM (−)” and the “Dose effect (Relative stimulation of IgA)” value ([2]; 0.62 uM) was “uM (−)”. For the same compound, the “Dose effect (Relative stimulation of IgA)” value ([2]; 6.2 uM) was “uM (+)” and the “genes involved in immunoglobulin class switching (BAFF, AID, TGFb, and IL-10)” value (shortened to “genes involved”) [3] was “differentially regulate”.
In the case of Cc1c(-c2ccnn2C)cc(C(=O)NCc2ccc(S(C)(=O)=O)cn2)c(=O)n1-c1cccc(C(F)(F)F)c1 [Alvelestat, alvelestat], the “AID mRNA synthesis” value [4] is reported as “stimulated”, the “frequency of CD4+ T cells” value [5] is reported as “increased” and the “expression of gut homing receptors (CCR9 and a4b7) by B and T cells in vitro” value [6] is reported as “promotes expression”. For the same compound, the “High affinity PA-specific IgG1 and IgA Ab responses” value [7] was “high affinity antibodies; also recorded: promotes high affinity Abs”, the “titers of PA-specific IgG1 and IgA responses” value [7] was “enhanced” and the “serum anti-PA neutralizing antibody titers” value ([8]; sublingual EdTx and NEI, listed as NEI) was “significantly increased; also recorded: enhanced neutralizing activity”. The “serum anti-PA neutralizing antibodies” value ([8]; sublingual antigen plus NEI) was “low and comparable levels”, the “expression of gut homing receptors (CCR9 and a4b7) by B and T cells in vivo” value [9] was “promotes expression” and the “OVA-specific serum IgE response” value [10] was “no IgE response was detected”. The “OVA-specific serum IgE responses induced by EdTx” value [10] was “significantly reduced; also recorded: suppresses”, the “OVA-specific serum IgG1 responses in the absence of EdTx” value [10] was “increased” and the “OVA-specific serum IgG1 responses induced by EdTx” value [10] was “increased the magnitude; also recorded: enhances”. The “OVA-specific serum IgG2a/c, or IgG3 in the absence of EdTx” value [10] was “no evidence that the NEI enhanced”, the “OVA-specific serum IgG2b responses induced by EdTx as adjuvant” value [10] was “significantly increased; also recorded: enhances” and the “antigen-specific IgA in gut (fecal extracts)” value [10] was “did not stimulate”. For the same compound, the “antigen-specific IgA responses in vaginal washes” value [10] was “only non-significant levels”, the “fecal IgA responses” value [10] was “resulted in induction of fecal IgA responses” and the “vaginal IgG responses induced by EdTx as adjuvant” value [10] was “enhance”. The “kinetic and magnitude of OVA-specific serum IgG” value [11] was “enhances”, the “mucosal IgA responses in the gut (OVA-specific, fecal extracts)” value [11] was “promotes” and the “all CD4+ T helper cytokine responses, including Th1, Th2, Th17 and Tfh” value [12] was “significantly increased”. For the same compound, the “frequencies of IL-4+ CD4+ cells” value [12] was “lower frequencies”, the “frequencies of IL-10+ CD4+ T cells and IL-17+ CD4+ T cells” value [12] was “higher frequencies” and the “frequencies of Th1 cells (IFNγ+ CD4+ T cells and TNFα+ CD4+ T cells)” value [12] was “same frequencies”. For the same compound, the “frequencies of Th2 cells producing IL-5” value [12] was “similar”, the “frequencies of antigen-specific IL-21+ CD4 T cells” value [12] was “same frequencies” and the “IgG and IgA in culture supernatants of mesenteric lymph node cells” value [13] was “higher levels”. For the same compound, the “IgA production by spleen cells cultured in the presence of LPS” value ([14]; LPS 0.05 μg/ml) was “significant increase”, the “IgG and IgA secreted in culture supernatants of spleen cells” value [14] was “increased” and the “IgM secreted in culture supernatants of spleen cells” value [14] was “reduced”.
In the case of CC(=O)Oc1ccccc1C(=O)O [Acetyl-salicylic acid (ASA), acetylsalicylic acid], the “Relative stimulation of IgA secretion” value [2] is reported as “++”, the “Dose effect (Relative stimulation of IgA)” value ([2]; 10 uM) is reported as “uM (++)” and the “Dose effect (Relative stimulation of IgA)” value ([2]; 100 uM) is reported as “uM (++)”. For the same compound, the “Dose effect (Relative stimulation of IgA)” value ([2]; 500 uM) was “uM (+)”, the “genes involved” value [3] was “differentially regulate” and the “IgG and IgA production (immunofluorescence on cytospins)” value [15] was “enhanced”. The “IgA secretion by spleen cells (frequency of IgA secreting cells, ELISPOT)” value (from here on “IgA secretion by spleen cells”) [16] was “enhanced”.
With O=C(O)c1cc(/N=N/c2ccc(S(=O)(=O)Nc3ccccn3)cc2)ccc1O [Sulfasalazine, sulfasalazine] the “Relative stimulation of IgA secretion” value [2] was “+++”, the “Dose effect (Relative stimulation of IgA)” value ([2]; 10 uM) was “uM (++)” and the “Dose effect (Relative stimulation of IgA)” value ([2]; 100 uM) was “uM (+++)”. The “Dose effect (Relative stimulation of IgA)” value ([2]; 1000 uM) was “uM (+)”, the “genes involved” value [3] was “differentially regulate” and the “ET formation in neutrophils and mast cells” value [1] was “significantly inhibit”. For the same compound, the “IgA secretion by spleen cells” value [16] was “enhanced”.
For CC(C)(C)C(=O)Oc1ccc(S(=O)(=O)Nc2ccccc2C(=O)NCC(=O)O)cc1 [Sivelestat, sivelestat], the “Relative stimulation of IgA secretion” value [2] was “++”, the “Dose effect (Relative stimulation of IgA)” value ([2]; 4.6 uM) was “uM (+)” and the “Dose effect (Relative stimulation of IgA)” value ([2]; 46 uM) was “uM (++)”. The “Dose effect (Relative stimulation of IgA)” value ([2]; 230 uM) was “uM (++)”, the “AID mRNA synthesis” value [4] was “stimulated” and the “genes involved” value [3] was “differentially regulate”. For the same compound, the “IgG and IgA production (immunofluorescence on cytospins)” value [15] was “larger increases”, the “IgA secretion by spleen cells” value [16] was “enhanced” and the “PA-specific salivary IgA response” value [17] was “enhances”. The “PA-specific serum IgA response” value [17] was “enhances”, the “PA-specific serum IgG1 response” value [17] was “enhances” and the “PA-specific serum IgG2c response” value [17] was “did not affect”. The “IgA responses by a sublingual vaccine” value [18] was “promotes”, the “secretion of IgG and IgA by splenocytes cultured in the presence of LPS” value ([14]; LPS 0.05 μg/ml) was “increased” and the “IgG and IgA secreted in culture supernatants of spleen cells” value [14] was “dose-dependent increase”. For the same compound, the “IgM secreted in culture supernatants of spleen cells” value [14] was “reduced”.
